The values below are quoted from earlier work in US8993486B2, “Ultra-high throughput screening methods to detect synergistic drug interactions” (Lankenau Institute for Medical Research Chemical Genomics …, priority 2010, dated 2015).

For the series, the system named is diverse fungal pathogens.

With `CC(=O)N1CCN(c2ccc(OCC3COC(Cn4ccnc4)(c4ccc(Cl)cc4Cl)O3)cc2)CC1` (centres unmarked) [ketoconazole], the fungicidal activity alone entry (low dosage) is reported as “little detectable fungicidal activity”.

Consider beauvericin, for which the “synergy with ketoconazole (KTC) activity” value (checkerboard assay, diverse fungal pathogens) is given as “dramatically synergized KTC activity”.
